Assays:
HUV-EC-C cells = experiment: in vitro angiogenesis assay, tube formation; type: cell-based; details: HUV-EC-C on ECMatrix, after 5 hours
Procedure: HUV-EC-C cells were purchased from ATCC and routinely cultured in Ham's F12K medium supplemented with 10% FBS, 2 mM L-glutamine, 1.5 g/L sodium bicarbonate, 0.1 mg/ml heparin and 0.03 mg/ml endothelial cell growth supplement (ECGS).
An In Vitro Angiogenesis Assay kit from Chemicon (Cat#ECL625) was used for testing HUV-EC-C tube formation. Cells were incubated on ECMatrix coated 96-well plate at 8×10^3 cells per well in growth medium with or without NPY, its antagonist MK0557, or DMSO as a control. Inhibition of in vitro endothelial tubule formation by MK0557 was quantitated from photographs after 5 hours by counting the number of tubes in the well (FIG. 7).

[1] = system: Colon cancer cells, HCT-15; experiment: colon cancer xenograft model (Example 8); type: in vivo, CB17-SCID mice
Procedure: Colon cancer cells, HCT-15, (1×10^6) were implanted in CB17-SCID mice. The mice were treated with MK0557 at 30 mg/kg or vehicle (15% of 0.5%) CMC (carboxymethylcelulose) (low viscosity) and 85% of 0.2% Tween80 in water) intraperitoneally daily for the first week followed by once every two days injections.

Lung cancer cells, H358 = experiment: lung cancer xenograft model (Example 9); type: in vivo, CB17-SCID mice
Procedure: Lung cancer cells, H358, (1×10^6) were implanted in CB17-SCID mice. Ten days post-implantation, the mice were treated with MK0557 at 30 mg/kg or vehicle (15% of 0.5%) CMC (carboxymethylcelulose) (low viscosity) and 85% of 0.2% Tween80 in water) intraperitoneally daily for the first week followed by once every two days injections.

[2] = system: Breast cancer cells, MDA MB 468; experiment: breast cancer xenograft model (Example 11); type: in vivo, SCID mice; details: 30 mg/kg i.p. 3/week, approximately 4 weeks
Procedure: Breast cancer cells, MDA MB 468 (12 million), were injected subcutaneously (s.c.) on the neck of SCID mice (CB17, female, 4-6 weeks old) (Charles River, Wilmington, Mass.). The mice were divided into four groups, 5 mice for each group. The treatments were started when the tumor volume reached about 100 mm^3, day 22 after tumor implantation. […] The tumor sizes were monitored every 3 or 4 days. […] (FIG. 12)

[3] = system: Ovarian cancer cells SKOV-3; experiment: ovarian cancer xenograft model (Example 13); type: in vivo, SCID mice; details: 30 mg/kg i.p. 3/week
Source text: Ovarian cancer cells SKOV-3 (5 millions) were implanted s.c. on the right flank of SCID mice (CB17, female, 4-6 weeks) (Charles River, Wilmington, Mass.). The mice were divided into four groups, 5 mice for each group. The treatments were started when the tumor volume reached at around 60 mm3, day 8 after tumor implantation. […] The tumor growth was monitored for the duration of the experiment. […] (FIG. 14)

[4] = system: Breast cancer cells, MDA MB 468; experiment: breast cancer xenograft model, MK0557 and 5-FU (Example 15); type: in vivo, CB17-SCID; details: MK0557 alone, 30 mg/kg ip. 3/week
Procedure: Breast cancer cells, MDA MB 468, were injected into CB17-SCID. The treatments were started day 14 after tumor implantation. […] Tumor volume and tumor growth were monitored during the experiment.

human NPY2R = biological target: T1, human NPY2R (Homo sapiens, UniProt P49146); details: at a concentration of 10 μM; cited from earlier work
T1 sequence (P49146 1-381): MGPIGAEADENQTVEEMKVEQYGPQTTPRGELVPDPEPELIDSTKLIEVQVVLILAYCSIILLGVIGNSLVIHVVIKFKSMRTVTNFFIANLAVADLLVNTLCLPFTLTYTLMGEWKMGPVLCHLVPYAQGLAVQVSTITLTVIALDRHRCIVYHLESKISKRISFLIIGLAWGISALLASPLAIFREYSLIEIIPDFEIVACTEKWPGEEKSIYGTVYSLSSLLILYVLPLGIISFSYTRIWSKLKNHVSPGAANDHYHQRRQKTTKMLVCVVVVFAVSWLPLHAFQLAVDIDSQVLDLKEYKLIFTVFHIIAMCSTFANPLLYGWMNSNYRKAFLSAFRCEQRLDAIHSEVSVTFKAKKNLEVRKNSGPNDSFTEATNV

[5] = 30 mg/kg intraperitoneally daily first week then once every two days

## O=C1O[C@]2(CC[C@H](C(=O)Nc3ccn(-c4ccccc4F)n3)CC2)c2cnccc21 [MK-0557, trans-N-[1-(2-fluorophenyl)-3-pyrazolyl]-3-oxospiro[6 azaisobenzofuran-1(3H), 1′-cyclohexane]-4′carboxamide]
HUV-EC-C cells
  tube formation: inhibits tube formation
[1]; 30 mg/kg intraperitoneally
  effect on mouse body weights: no obvious effect
[1]; [5]
  tumor growth: Tumor growth was inhibited
Lung cancer cells, H358; 30 mg/kg intraperitoneally
  effect on mouse body weights: no obvious effect
Lung cancer cells, H358; [5]
  tumor growth: Tumor growth was inhibited
[2]
  tumor growth: inhibited tumor growth
[3]
  tumor growth: inhibited tumor growth
[4]
  Mean Tumor Volume: 392.73±80.63 mm^3
  Mean Tumor Weight: 0.1582 ± 0.0345 g
[4]; versus vehicle
  inhibition rate (tumor volume): 38.85%
  inhibition rate (tumor weight): 38.59%
Human NPY2R
  binding to human NPY2R: does not significantly bind

— patent publication US8765791B2, “Method of treating cancer using a neuropeptide Y 5R (NP Y5R) antagonist” (University Health Network, priority 2008, dated 2014)
